Data from US11014895B2, “Heterocyclic urea compound, and drug composition and application thereof” (CHINA PHARMACEUTICAL UNIVERSITY, priority 2017, dated 2021).

Legend:
IDO1 enzyme = IDO1 enzyme (Homo sapiens, UniProt P14902); assay: Determination of biochemical activity of IDO1 enzyme (absorbance at 320 nm); settings: room temperature, 3 hours
Procedure: (1) Method for Determining Biochemical Activity of IDO1 Enzyme
Firstly, 15 μl of buffer solution of sodium hydrogen phosphate (PH:7-8), 5 μl of reaction buffer solution containing a proper amount of IDO-1 enzyme and heterocyclic urea compound prepared by the invention were added into wells of a microplate, mixed evenly, and reacted at room temperature for 3 hours; then a light absorption value at 320 nm wavelength was detected by using Envision Multilabel Reader of PE company, an inhibition rate of the heterocyclic urea compound on the enzyme reaction was calculated according to an absorption ratio, and an IC50 value of the heterocyclic urea compound was calculated through analysis by GraphPad.

[1] = molecular target: T1, IDO1 enzyme in the Hela cell (Homo sapiens, UniProt P14902); assay: Cell activity: interferon γ-stimulated Hela cells, absorbance of supernatant at 480 nm; format: cell-based; settings: interferon γ 100 ng/ml, 72 hours
T1 construct: endogenous in cells; host or cells: HeLa cells stimulated with interferon γ (100 ng/ml)
T1 sequence (P14902 whole entry): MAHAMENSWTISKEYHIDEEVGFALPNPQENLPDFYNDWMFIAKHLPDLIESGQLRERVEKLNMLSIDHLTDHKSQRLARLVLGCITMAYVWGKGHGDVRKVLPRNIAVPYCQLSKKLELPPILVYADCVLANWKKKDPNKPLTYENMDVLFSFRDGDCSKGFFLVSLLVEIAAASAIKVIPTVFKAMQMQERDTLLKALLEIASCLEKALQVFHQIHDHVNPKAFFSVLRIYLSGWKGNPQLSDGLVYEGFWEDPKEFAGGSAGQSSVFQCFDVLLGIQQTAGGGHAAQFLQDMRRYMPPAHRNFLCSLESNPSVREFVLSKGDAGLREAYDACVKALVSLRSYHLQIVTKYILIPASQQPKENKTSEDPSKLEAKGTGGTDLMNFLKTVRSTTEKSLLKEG
Procedure: (2) Method for Determining Cell Activity
Hela cells were cultured and passaged in a DMEM medium supplemented with antibiotics in a 37° C. CO2 incubator, inoculated into a 96-well plate for overnight culture, then 1 μl of heterocyclic urea compound with appropriate concentration was added to each well, and then 100 μl of interferon γ (final concentration was 100 ng/ml) was added. After the cells were continuously cultured for 72 hours, 70 μl of cell culture supernatant was added to a 96-well V-bottom plate, 5 μl of trichloroacetic acid (6.1 N) was added to each well, incubated at 50° C. for 30 min, then taken out and centrifuged at […] for 10 min. The above centrifuged supernatant was transferred to a 384-well microplate (20 μl/well), then 20 μl of 2% didimethylaminobenzaldehyde acetic acid solution was added to each well, shaken and mixed evenly, then photometric absorption was performed at 480 nm, and values were measured.

IDO1 enzyme, sequence (P14902 whole entry): as above

Structure (SMILES) | IC50 (IDO1 enzyme) [µM] | IC50 [1] [µM]
COc1ccc(NC(=O)Nc2conc2/C(=N/O)Nc2ccc(F)c(Cl)c2)cc1 [Embodiment 112, (Z)-1-(4-(N-(3-chloro-4-fluorophenyl)-N′-hydroxyaminoiminomethyl)-isoxazole-3-substituted)-4-(4-methoxyphenyl)urea] | 0.1 to 1 | 0.1 to 1
N=C(Nc1ccccc1)Nc1nocc1/C(=N/O)Nc1ccc(F)c(Br)c1 [Embodiment 158, (Z)-1-(4-(N-(3-bromo-4-fluorophenyl)-N′-hydroxyaminoiminomethyl)-isoxazole-3-substituted)-3-phenylguanidine] | 0.1 to 1 | 0.1 to 1
N=C(Nc1nonc1/C(=N/O)Nc1ccc(F)c(Br)c1)NC1CCNCC1 [Embodiment 148, (Z)-1-(4-(N-(3-bromo-4-fluorophenyl)-N′-hydroxyaminoiminomethyl)-1,2,5-oxadiazole-3-substituted)-3-(piperidine-4-substituted)guanidine] | < 0.001 | < 0.001
CS(=O)(=O)NCCCNC(=O)Nc1nonc1/C(=N/O)Nc1ccc(F)c(Br)c1 [Embodiment 17, (Z)-1-(4-(N-(3-bromo-4-fluorophenyl)-N′-hydroxyaminoiminomethyl)-1,2,5-oxadiazole-3-substituted)-3-(3-methamido-propyl)urea] | < 0.001 | < 0.001
OCCCNC(=S)Nc1nonc1/C(=N/O)Nc1ccc(F)c(Br)c1 [Embodiment 127, (Z)-1-(4-(N-(3-bromo-4-fluorophenyl)-N′-hydroxyaminoiminomethyl)-1,2,5-oxadiazole-3-substituted)-3-(3-hydroxypropyl)thiourea] | < 0.001 | < 0.001
O/N=C(\Nc1ccc(F)c(Br)c1)c1nonc1NC(=S)Nc1ccc(O)cc1 [Embodiment 117, (Z)-1-(4-(N-(3-bromo-4-fluorophenyl)-N′-hydroxyaminoiminomethyl)-1,2,5-oxadiazole-3-substituted)-3-(4-hydroxyphenyl)thiourea] | < 0.001 | < 0.001
O=C(Nc1nonc1/C(=N/O)Nc1ccc(F)c(Br)c1)N1CCNCC1 [Embodiment 48, (Z)-1-(4-(N-(3-bromo-4-fluorophenyl)-N′-hydroxyaminoiminomethyl)-1,2,5-oxadiazole-3-substituted)piperazine-1-carbamide] | 0.1 to 1 | 0.1 to 1
N#Cc1ccc(NC(=O)Nc2nonc2/C(=N/O)Nc2ccc(F)cc2)cc1 [Embodiment 57, (Z)-1-(4-(N-(4-fluorophenyl)-N′-hydroxyaminoiminomethyl)-1,2,5-oxadiazole-3-substituted)-3-(4-cyanophenyl)urea] | > 1 | > 1
COc1ccc(NC(=N)Nc2nonc2/C(=N/O)Nc2ccc(F)c(Br)c2)c(F)c1 [Embodiment 144] | 0.1 to 1 | 0.1 to 1
O=C(Nc1ccncn1)Nc1nonc1/C(=N/O)Nc1ccc(F)c(Br)c1 [Embodiment 45, (Z)-1-(4-(N-(3-bromo-4-fluorophenyl)-N′-hydroxyaminoiminomethyl)-1,2,5-oxadiazole-3-substituted)-3-(pyrimidine-4-substituted)urea] | > 1 | > 1
O=C(Nc1nonc1/C(=N/O)Nc1ccc(F)c(Br)c1)Nc1cccc2[nH]ccc12 [Embodiment 34, (Z)-1-(4-(N-(3-bromo-4-fluorophenyl)-N′-hydroxyaminoiminomethyl)-1,2,5-oxadiazole-3-substituted)-3-(1H-indole-4-substituted)urea] | 0.1 to 1 | 0.1 to 1
Nc1ccc(NC(=O)Nc2nonc2/C(=N/O)Nc2ccc(F)c(Cl)c2)cc1 [Embodiment 24, (Z)-1-(4-(N-(3-chloro-4-fluorophenyl)-N′-hydroxyaminoiminomethyl)-1,2,5-oxadiazole-3-substituted)-3-(4-aminophenyl)urea] | < 0.001 | < 0.001
COc1ccc(NC(=O)Nc2nonc2/C(=N/O)Nc2ccc(F)cc2)cc1 [Embodiment 54, (Z)-1-(4-(N-(4-fluorophenyl)-N′-hydroxyaminoiminomethyl)-1,2,5-oxadiazole-3-substituted)-3-(4-methoxyphenyl)urea] | 0.1 to 1 | 0.1 to 1
O=C(Nc1ccc(O)cc1)Nc1nonc1/C(=N/O)Nc1ccc(F)c(Cl)c1 [Embodiment 23] | < 0.001 | < 0.001
CCCNC(=O)Nc1nocc1/C(=N/O)Nc1ccc(F)c(Br)c1 [Embodiment 91, (Z)-1-(4-(N-(3-bromo-4-fluorophenyl)-N′-hydroxyaminoiminomethyl)-isoxazole-3-substituted)-3-(propyl)urea] | 0.1 to 1 | 0.1 to 1
O=C(NCCCO)Nc1nonc1/C(=N/O)Nc1ccc(F)c(Br)c1 [Embodiment 13, (Z)-1-(4-(N-(3-bromo-4-fluorophenyl)-N′-hydroxyaminoiminomethyl)-1,2,5-oxadiazole-3-substituted)-3-(3-hydroxypropane)urea] | < 0.001 | < 0.001

Structure (SMILES) | IC50 (IDO1 enzyme) [µM] | IC50 [1] [µM]
O=C(Nc1nonc1/C(=N/O)Nc1ccc(F)c(Br)c1)NC1CCNCC1 [Embodiment 11, (Z)-1-(4-(N-(3-bromo-4-fluorophenyl)-N′-hydroxyaminoiminomethyl)-1,2,5-oxadiazole-3-substituted)-3-(piperidine-4-substituted)urea] | < 0.001 | < 0.001
NCCNC(=O)Nc1nonc1/C(=N/O)Nc1ccc(F)c(Br)c1 [Embodiment 16, (Z)-1-(4-(N-(3-bromo-4-fluorophenyl)-N′-hydroxyaminoiminomethyl)-1,2,5-oxadiazole-3-substituted)-3-(2-aminoethyl)urea] | 0.1 to 1 | 0.1 to 1
O=C(Nc1cocc1/C(=N/O)Nc1ccc(F)c(Br)c1)NC1CCCCC1 [Embodiment 61, (Z)-1-(4-(N-(3-bromo-4-fluorophenyl)-N′-hydroxyaminoiminomethyl)-furan-3-substituted)-3-cyclohexylurea] | 0.1 to 1 | 0.1 to 1
O/N=C(\Nc1ccc(F)c(Br)c1)c1nonc1NC(=S)NC1CC1 [Embodiment 125, (Z)-1-(4-(N-(3-bromo-4-fluorophenyl)-N′-hydroxyaminoiminomethyl)-1,2,5-oxadiazole-3-substituted)-3-(cyclopropyl)thiourea] | > 1 | > 1
O=C(Nc1nonc1/C(=N/O)Nc1ccc(F)c(Br)c1)NC1CC1 [Embodiment 32, (Z)-1-(4-(N-(3-bromo-4-fluorophenyl)-N′-hydroxyaminoiminomethyl)-1,2,5-oxadiazole-3-substituted)-3-cyclopropylurea] | 0.1 to 1 | 0.1 to 1
CC1CCC(NC(=O)Nc2nonc2/C(=N/O)Nc2ccc(F)c(Br)c2)CC1 (centres unmarked) [Embodiment 9, (Z)-1-(4-(N-(3-bromo-4-fluorophenyl)-N′-hydroxyaminoiminomethyl)-1,2,5-oxadiazole-3-substituted)-3-(4-methylcyclohexyl)urea] | > 1 | > 1
O=C(Nc1ccoc1)Nc1cocc1/C(=N/O)Nc1ccc(F)c(Br)c1 [Embodiment 77] | > 1 | > 1
O=C(Nc1conc1/C(=N/O)Nc1ccc(F)c(Br)c1)NC1CCNCC1 [Embodiment 106] | < 0.001 | < 0.001
O/N=C(\Nc1ccc(F)c(Br)c1)c1cocc1NC(=S)Nc1ccccc1 [Embodiment 137, (Z)-1-(4-(N-(3-bromo-4-fluorophenyl)-N′-hydroxyaminoiminomethyl)-furan-3-substituted)-3-phenylthiourea] | 0.1 to 1 | 0.1 to 1
COc1ccc(NC(=O)Nc2nocc2/C(=N/O)Nc2ccc(F)c(Cl)c2)cc1 [Embodiment 97, (Z)-1-(4-(N-(3-chloro-4-fluorophenyl)-N′-hydroxyaminoiminomethyl)-isoxazole-3-substituted)-3-(4-methoxyphenyl)urea] | 0.1 to 1 | 0.1 to 1
CS(=O)(=O)N1CCN(C(=O)Nc2nonc2/C(=N/O)Nc2ccc(F)c(Br)c2)CC1 [Embodiment 50] | 0.1 to 1 | 0.1 to 1
COc1ccc(NC(=O)Nc2nonc2/C(=N/O)Nc2ccc(F)c(Br)c2)cc1C(F)(F)F [Embodiment 21, (Z)-1-(4-(N-(3-bromo-4-fluorophenyl)-N′-hydroxyaminoiminomethyl)-1,2,5-oxadiazole-3-substituted)-3-(4-methoxy-2-trifluoromethylphenyl)urea] | 0.1 to 1 | 0.1 to 1
O=C(Nc1nonc1/C(=N/O)Nc1ccc(F)c(Br)c1)NC1CCCCCC1 [Embodiment 33, (Z)-1-(4-(N-(3-bromo-4-fluorophenyl)-N′-hydroxyaminoiminomethyl)-1,2,5-oxadiazole-3-substituted)-3-cycloheptylurea] | 0.1 to 1 | 0.1 to 1
O=C(Nc1cccnc1)Nc1nocc1/C(=N/O)Nc1ccc(F)c(Br)c1 [Embodiment 96, (Z)-1-(4-(N-(3-bromo-4-fluorophenyl)-N′-hydroxyaminoiminomethyl)-isoxazole-3-substituted)-3-(3-aminopyridine)urea] | 0.1 to 1 | 0.1 to 1
COc1ccc(NC(=S)Nc2nonc2/C(=N/O)Nc2ccc(F)c(Br)c2)c(F)c1 [Embodiment 120] | > 1 | > 1
